# System: 996289-038-R-J1-PDC complex spheroid viability
# Test: Anticancer human tumor 996289-038-R-J1-PDC patient-derived colon adenocarcinoma cell line growth inhibition [CLK]
# Details: for IC50: curve of first compound; for viability, T/C: stronger effect = lower value
# How it was run: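 Multi-cell-type spheroids combined patient-derived tumor cells with HUVEC endothelial cells and human mesenchymal stem cells. Paired agents were dosed in half-log steps down from about clinical Cmax, or from 10 microM where Cmax was unknown.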
# 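Note: spheroids exposed to the agents for 7 days before readout.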
compound,measurement,setting,value
CC(C)CC(NC(=O)C(Cc1ccccc1)NC(=O)c1cnccn1)B(O)O (configuration not stated) + CN1CCN(c2cc(C(=O)Nc3cc4cc(-c5cnn(C)c5)ccc4cn3)ccn2)CC1,IC50,second compound 0.0316 µM,4.69 nM
same,IC50,second compound 0.1 µM,3.9 nM
same,IC50,second compound 0.316 µM,2.03 nM
same,IC50,second compound 1 µM,< 0.949 nM
same,IC50,second compound 3.16 µM,< 0.949 nM
same,IC50,second compound 10 µM,< 0.949 nM
same,"viability, T/C","second compound 0.0316 µM, first compound 0.000949 µM",119%
same,"viability, T/C","second compound 0.0316 µM, first compound 0.003 µM",77.7%
same,"viability, T/C","second compound 0.0316 µM, first compound 0.00949 µM",6.22%
same,"viability, T/C","second compound 0.0316 µM, first compound 0.03 µM",4.45%
same,"viability, T/C","second compound 0.0316 µM, first compound 0.0949 µM",2.91%
same,"viability, T/C","second compound 0.0316 µM, first compound 0.3 µM",0.26%
same,"viability, T/C","second compound 0.1 µM, first compound 0.000949 µM",97.5%
same,"viability, T/C","second compound 0.1 µM, first compound 0.003 µM",62.8%
same,"viability, T/C","second compound 0.1 µM, first compound 0.00949 µM",6.36%
same,"viability, T/C","second compound 0.1 µM, first compound 0.03 µM",0.64%
same,"viability, T/C","second compound 0.1 µM, first compound 0.0949 µM",0.55%
same,"viability, T/C","second compound 0.1 µM, first compound 0.3 µM",0.33%
same,"viability, T/C","second compound 0.316 µM, first compound 0.000949 µM",70.5%
same,"viability, T/C","second compound 0.316 µM, first compound 0.003 µM",39.5%
same,"viability, T/C","second compound 0.316 µM, first compound 0.00949 µM",2.17%
same,"viability, T/C","second compound 0.316 µM, first compound 0.03 µM",2.47%
same,"viability, T/C","second compound 0.316 µM, first compound 0.0949 µM",0.77%
same,"viability, T/C","second compound 0.316 µM, first compound 0.3 µM",1.41%
same,"viability, T/C","second compound 1 µM, first compound 0.000949 µM",2.7%
same,"viability, T/C","second compound 1 µM, first compound 0.003 µM",0.91%
same,"viability, T/C","second compound 1 µM, first compound 0.00949 µM",1.02%
same,"viability, T/C","second compound 1 µM, first compound 0.03 µM",0.56%
same,"viability, T/C","second compound 1 µM, first compound 0.0949 µM",0.24%
same,"viability, T/C","second compound 1 µM, first compound 0.3 µM",0.28%
same,"viability, T/C","second compound 3.16 µM, first compound 0.000949 µM",0.51%
same,"viability, T/C","second compound 3.16 µM, first compound 0.003 µM",0.34%
same,"viability, T/C","second compound 3.16 µM, first compound 0.00949 µM",0.26%
same,"viability, T/C","second compound 3.16 µM, first compound 0.03 µM",0.67%
same,"viability, T/C","second compound 3.16 µM, first compound 0.0949 µM",0.47%
same,"viability, T/C","second compound 3.16 µM, first compound 0.3 µM",0.21%
same,"viability, T/C","second compound 10 µM, first compound 0.000949 µM",0.41%
same,"viability, T/C","second compound 10 µM, first compound 0.003 µM",1.36%
same,"viability, T/C","second compound 10 µM, first compound 0.00949 µM",1.47%
same,"viability, T/C","second compound 10 µM, first compound 0.03 µM",1.13%
same,"viability, T/C","second compound 10 µM, first compound 0.0949 µM",0.38%
same,"viability, T/C","second compound 10 µM, first compound 0.3 µM",0.22%

# Source: PubChem BioAssay AID2060600 (Molecular Pharmacology Branch, DTP, NCI, 2025)
